SMILES strings stand for the structures.

A word on the inhibition: it is how much of the control response was suppressed. Usually Ki stands for the equilibrium dissociation constant of an inhibitor or competing ligand from its target. As a reminder, the melting point is the temperature of the solid-liquid transition.

The target of the first series is T1, recombinant human 5HT6 receptor (Homo sapiens, UniProt P50406).
T1 construct: purchased Receptor Biology; host or cells: HEK-293 cell membranes
T1 sequence (P50406 whole entry): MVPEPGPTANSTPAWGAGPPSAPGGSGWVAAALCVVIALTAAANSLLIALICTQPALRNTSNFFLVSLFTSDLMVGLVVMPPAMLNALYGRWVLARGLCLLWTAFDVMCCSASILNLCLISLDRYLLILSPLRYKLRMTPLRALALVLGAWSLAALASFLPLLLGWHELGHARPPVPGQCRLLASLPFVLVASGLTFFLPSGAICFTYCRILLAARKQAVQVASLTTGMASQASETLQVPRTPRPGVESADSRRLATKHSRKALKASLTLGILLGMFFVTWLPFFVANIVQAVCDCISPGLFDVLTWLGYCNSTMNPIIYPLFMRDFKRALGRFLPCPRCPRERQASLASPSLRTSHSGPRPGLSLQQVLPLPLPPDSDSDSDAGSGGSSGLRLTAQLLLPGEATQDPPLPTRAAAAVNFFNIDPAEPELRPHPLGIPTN
In words: Binding to the 5HT6 serotonin receptor, [3H]-LSD, HEK-293 cell membranes. Conditions: 10^−6 M; compounds of general formula (Id), Table 1d. How it is done:
Binding to the 5HT6 Serotonin Receptor
The respective part of the literature descriptions is incorporated here by reference and form part of the disclosure. […] The assays are carried out in triplicate.
As to `CN(C)CCn1ccc2c(NS(=O)(=O)CCc3cccc4ccccc34)cccc21` [Example 5d, N-[1-(2-dimethylaminoethyl)-1H-indole-4-yl]-2-(naphthalene-1-yl)-ethanesulfonamide], the inhibition at 1 µM was 98.1%.

The series is the same for the next values; noted with them: compounds of general formula (If), Table 1f.
For the molecule `CN(C)CCn1ccc2ccc(NS(=O)(=O)c3ccc(-c4ccccc4)cc3)cc21` [Example 5f, N-[1-(2-Dimethylaminoethyl)-1H-indol-6-yl]-4-phenylbenzenesulfonamide], the Ki turned out to be 129 nM.

The target of a further series is T2, Neuropeptide Y2 receptor (Rattus norvegicus, UniProt Q9ERC0).
T2 construct: from tissue; host or cells: rat hippocampus membranes (male Wistar rats)
T2 sequence (Q9ERC0 1-381): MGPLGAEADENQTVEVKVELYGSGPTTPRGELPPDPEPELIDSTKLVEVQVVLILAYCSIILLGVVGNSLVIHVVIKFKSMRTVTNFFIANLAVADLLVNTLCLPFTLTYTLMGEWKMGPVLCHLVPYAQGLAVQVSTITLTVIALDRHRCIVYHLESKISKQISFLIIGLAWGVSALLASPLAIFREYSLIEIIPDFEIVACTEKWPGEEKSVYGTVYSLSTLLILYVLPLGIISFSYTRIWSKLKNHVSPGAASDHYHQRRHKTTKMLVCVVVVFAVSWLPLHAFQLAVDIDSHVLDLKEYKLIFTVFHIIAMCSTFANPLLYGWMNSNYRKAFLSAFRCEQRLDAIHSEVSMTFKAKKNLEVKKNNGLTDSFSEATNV
Nature of the series: Binding to Neuropeptide Y2, Method (III), [125I]-PYY3-36, rat hypoccampus membranes. As to conditions: [125I]-PYY(3-36). The protocol: Binding to Neuropeptide Y2
Male Wistar rats are sacrificed by decapitation, their brains are rapidly removed and the hypoccampus is dissected. Homogenization is performed in cold conditions in the buffer: 120 mM NaCl, 4.7 mM KCl, 2.2 mM CaCl2, 1.2 mM KH2PO4, 1.2 mM MgSO4, 25 mM NaHCO3, 5.5 mM glucose, pH 7.4, by means of a Ultra-Turrax homogenizer for 15 seconds at 13,500 rpm. The ratio between fresh tissue weight and buffer volume is of ten times. The membrane is centrifuged for 10 min at 48,000 g. The supernatant is discarded and the pellet is washed, resuspended and recentrifuged two more times. The final membrane resuspension is performed in the buffer: 120 mM NaCl, 4.7 mM KCl, 2.2 mM CaCl2, 1.2 mM KH2PO4, 1.2 mM MgSO4, 25 mM NaHCO3, 5.5 mM glucose, 0.1% BSA, 0.05% bacitracin, pH 7.4, at a 90 ml/g ratio of fresh issue. […] Incubation volume: 500 μl. […] The filters are cold-washed three times with three milliliters of the same buffer used in homogenization. […] Non-specific binding is determined in the presence of 1 μM of pNPY (Neuropeptide Y of porcine origin). The assays are performed in triplicate.
Take `Cl.O=C(CN1CCC(N2C(=O)OCc3ccccc32)CC1)Nc1ccc2c(c1)-c1ccccc1C2=O` [Example 3a, 2-[4-(2-oxo-4H-benzo[d][1,3]oxazin-1-yl)-piperidin-1-yl]-N-(9-oxo-9H-fluoren-3-yl)-acetamide hydrochloride]: the Ki was greater than 1000 nM.

In turn, `Cc1ccc2c(c1)COC(=O)N2C1CCN(CC(=O)Nc2ccc3c(c2)-c2ccccc2C3=O)CC1.Cl` [Example 20a, 2-[4-(6-methyl-2-oxo-4H-benzo[d][1,3]oxazin-1-yl)-piperidin-1-yl]-N-(9-oxo-9H-fluoren-3-yl)-acetamide hydrochloride] registered a Ki greater than 1000 nM.

System in another series: not given
Test: not given
Conditions: not given
Turning to `CN(C)CCn1ccc2c(NS(=O)(=O)CCc3cccc4ccccc34)cccc21` [Example 5d, N-[1-(2-dimethylaminoethyl)-1H-indole-4-yl]-2-(naphthalene-1-yl)-ethanesulfonamide], the melting point fell in the range of 47 to 54 °C.

As to `Cl.O=C(CN1CCC(N2C(=O)OCc3ccccc32)CC1)Nc1ccc2c(c1)-c1ccccc1C2=O` [Example 3a, 2-[4-(2-oxo-4H-benzo[d][1,3]oxazin-1-yl)-piperidin-1-yl]-N-(9-oxo-9H-fluoren-3-yl)-acetamide hydrochloride], the melting point is greater than 275 °C.

In turn, `Cc1ccc2c(c1)COC(=O)N2C1CCN(CC(=O)Nc2ccc3c(c2)-c2ccccc2C3=O)CC1.Cl` [Example 20a, 2-[4-(6-methyl-2-oxo-4H-benzo[d][1,3]oxazin-1-yl)-piperidin-1-yl]-N-(9-oxo-9H-fluoren-3-yl)-acetamide hydrochloride] came in with a melting point of 250 to 252 °C.

The molecule `Cl.O=C(CN1CCC(N2C(=O)OCc3cc(Cl)ccc32)CC1)Nc1ccc(C(=O)c2ccccc2)cc1` yielded a melting point of 256 to 259 °C.

`Cc1cc2cc(NS(=O)(=O)c3cc(Cl)cc(Cl)c3)ccc2n1CCN(C)C` [Example 39e, 3,5-dichloro-N-(1-(2-(dimethylamino)ethyl)-2-methyl-1H-indol-5-yl)-benzenesulfonamide] displayed a melting point of 147 to 149 °C.

`CN(C)CCn1ccc2ccc(NS(=O)(=O)c3ccc4ccccc4c3)cc21` [Example 2f, N-[1-(2-Dimethylaminoethyl)-1H-indol-6-yl]-naphthalene-2-sulfonamide] registered a melting point of 140 to 143 °C.

In turn, `Cc1cccc2c1N(C1CCN(CC(=O)Nc3ccccc3C(=O)c3ccccc3)CC1)C(=O)OC2.Cl` yielded a melting point of 168 to 176 °C.

The molecule `Cl.O=C(CN1CCC(N2C(=O)OCc3ccccc32)CC1)Nc1ccc(Cl)cc1` came in with a melting point of 272 to 276 °C.

For `Cc1cccc2c1N(C1CCN(CC(=O)Nc3ccc(Oc4ccccc4)cc3)CC1)C(=O)OC2.Cl`, the melting point fell in the range of 162 to 167 °C.

Take `O=C1OCc2ccccc2N1C1CCN(S(=O)(=O)c2cccc(Cl)c2Cl)CC1`: the melting point was in the range of 185 to 187 °C.

On to `O=S(=O)(Nc1ccc2c(ccn2CCN2CCCC2)c1)c1ccc2ccccc2c1` [Example 16e, N-[1-(2-pyrrolidine-1-yl-ethyl)-1H-indole-5-yl]-naphthalene-2-sulfonamide], for which the melting point lay within 138 to 140 °C.

The molecule `CN(C)CCn1ccc2cc(NS(=O)(=O)/C=C/c3ccccc3)ccc21` had a melting point of 108 to 111 °C.

`O=C(CN1CCC(N2C(=O)OCc3cc(F)ccc32)CC1)Nc1ccc2c(c1)-c1ccccc1C2=O` came in with a melting point of 237 °C.

As for `CN(C)CCn1ccc2cc(NS(=O)(=O)c3cccc4c(Cl)cccc34)ccc21` [Example 4e, N-[1-(2-dimethylaminoethyl)-1H-indole-5-yl]-5-chloronaphthalene-1-sulfonamide], the melting point was in the range of 172 to 174 °C.

Take `CC(C)N(c1ccccc1)c1ccc(NC(=O)CN2CCC(N3C(=O)OCc4ccccc43)CC2)cc1.Cl`: the melting point lay within 171 to 173 °C.

`O=S(=O)(Nc1ccc2c(ccn2CCCN2CCCCC2)c1)c1cccc2ccccc12` [Example 45e, N-(1-(3-(piperidin-1-yl)propyl)-1H-indol-5-yl)naphthalene-1-sulfonamide] registered a melting point of 105 to 107 °C.

In turn, `CN(C)CCn1ccc2cc(NS(=O)(=O)c3csc4ccccc34)ccc21` [Example 42e, N-(1-(2-(dimethylamino)ethyl)-1H-indol-5-yl)benzo[b]thiophene-3-sulfonamide] showed a melting point of 61 to 72 °C.

`O=S(=O)(Nc1ccc2c(ccn2CCCN2CCCCC2)c1)c1cc(Cl)c(Cl)s1` [Example 51e, 4,5-dichloro-N-(1-(3-(piperidin-1-yl)propyl)-1H-indol-5-yl)thiophene-2-sulfonamide] yielded a melting point of 70 to 72 °C.

Consider `CN1CCN(Cc2c[nH]c3ccc(NS(=O)(=O)/C=C/c4ccccc4)cc23)CC1`, for which the melting point is 203 °C (dec.).

For `Cc1ccc(S(=O)(=O)Nc2ccc3c(ccn3CCN(C)C)c2)cc1` [Example 8e, N-[1-(2-dimethylaminoethyl)-1H-indole-5-yl]-4-methylbenzenesulfonamide], the melting point lay within 126 to 128 °C.

Turning to `Cl.O=C(CN1CCC(N2C(=O)OCc3ccccc32)CC1)Nc1ccc(Oc2ccccc2)cc1`, the melting point was 242 to 248 °C.

As for `Cc1cccc2c1N(C1CCN(CC(=O)Nc3ccc(C#N)cc3)CC1)C(=O)OC2.Cl`, the melting point fell in the range of 229 to 234 °C.

`COc1ccc(S(=O)(=O)Nc2ccc3c(ccn3CCN(C)C)c2)cc1` [Example 23e, N-[1-(2-dimethylaminoethyl)-1H-indole-5-yl]-4-methoxybenzenesulfonamide] displayed a melting point of 141 to 144 °C.

In turn, `O=S(=O)(Nc1ccc2[nH]cc(CCN3CCCC3)c2c1)c1cccc2ccccc12` had a melting point of 212 to 214 °C.

In the case of `CCN(CC)CCc1c[nH]c2ccc(NS(=O)(=O)c3ccc(-c4ccccc4)cc3)cc12` [Example 5c, N-[3-(2-diethylaminoethyl)-1H-indol-5-yl]-4-phenylbenzenesulphonamide], the melting point is 161 to 163 °C.

`CCCN(CCC)CCc1c[nH]c2ccc(NS(=O)(=O)c3cccc4ccccc34)cc12` returned a melting point of 76 to 80 °C.

The molecule `Cc1c(S(=O)(=O)Nc2ccc3[nH]cc(CCN(C)C)c3c2)sc2ccc(Cl)cc12` [Example 7c, N-[3-(2-dimethylaminoethyl)-1H-indol-5-yl]-5-chloro-3-methylbenzo[b]thiophene-2-sulphonamide] gave a melting point of 226 to 227 °C.

In turn, `CN(C)CCn1ccc2cc(NS(=O)(=O)c3cccc4ccccc34)ccc21` [Example 3e, N-[1-(2-dimethylaminoethyl)-1H-indole-5-yl]-naphthalene-1-sulfonamide] returned a melting point of 179 to 181 °C.

`CN(C)CCn1ccc2cccc(NS(=O)(=O)c3c(Cl)nc4sccn34)c21` [Example 4g, N-[1-(2-dimethylaminoethyl)-1H-indole-7-yl]-6-chloroimidazo[2,1-b]thiazole-5-sulfonamide] registered a melting point of 73 to 76 °C.

Molecule `O=C(CN1CCC(N2C(=O)OCc3cccc(Cl)c32)CC1)Nc1ccc2[nH]c3ccccc3c2c1` had a melting point of 180 °C.

As for `Cc1cccc2c1N(C1CCN(CC(=O)Nc3ccc4c(c3)-c3ccccc3C4=O)CC1)C(=O)OC2.Cl`, the melting point fell in the range of 233 to 236 °C.
